Test results as given in US7229646B2, “Methods and compositions for modulating immune response and for the treatment of inflammatory disease” (Foodscience Corporation, priority 1999, dated 2007).

Tests used:
il-10 = assay: Serum cytokine ELISA, il-10; format: in vivo, MRI-lpr mice; details: ELISA (FIG. 2)
From the text: (§1) MRI-lpr mice were used to study the effects of a combination of DMG and PCE on components of the immune system and on the progression of the SLE disease. Forty MRI-lpr mice were divided into four groups of ten mice each: a control group, a PCE treated group, a DMG treated group, and a PCE-DMG treated group. The control group was given standard mouse chow and water. […] The PCE group was given a PCE-mouse chow mix and water. The PCE-DMG combination group was given a PCE-mouse chow mix and DMG water. […] The mice were given food and water ad libitum. It is estimated that the mice, with a size range of 30–50 grams, consumed about 1–3 mg/day of DMG and 2–6 mg/day of PCE. The mice were weighed weekly and 100 ul of blood was collected via orbital bleed on a weekly basis. The collected blood was centrifuged and the serum was recovered and stored at −20° C. for analysis at the end of the twelve week experiment. After twelve weeks, the mice were sacrificed and the spleens, kidneys, and livers were harvested. […] The spleens were processed and the cells recovered were quantified by flow cytometry using fluorescent anti-CD4, anti-CD8 and anti-CD19 antibodies (Pharmingen, San Diego, Calif.). Cytokine levels in the serum and anti-single stranded and double stranded DNA antibody levels in the serum were determined using an enzyme linked immunosorbent assay (ELISA).

anti-ssDNA antibody = assay: Serum anti-ssDNA antibody ELISA; format: in vivo, MRI-lpr mice; details: time course to 11th week; versus control (FIG. 5)
From the text: as §1

lactic acid levels = details: animals under extreme stress; cited from earlier work
il-6 = assay: Serum cytokine ELISA, il-6; format: in vivo, MRI-lpr mice; details: ELISA (FIG. 2)
From the text: as §1

CD8^+ T cells = assay: Spleen lymphocyte populations by flow cytometry, CD8+ T cells; format: in vivo, MRI-lpr mice; details: flow cytometry after twelve weeks (FIG. 3)
From the text: as §1

[1] = tested on: B-cells, T cells and macrophages; details: in humans; cited from earlier work
[2] = tested on: humoral and cellular immunity; details: Graber et al., 1981; cited from earlier work
CD19^+ B cell = assay: Spleen lymphocyte populations by flow cytometry, CD19+ B cells; format: in vivo, MRI-lpr mice; details: flow cytometry after twelve weeks (FIG. 3)
From the text: as §1

SMILES: CN(C)CC(=O)O [DMG, N,N-dimethylglycine]
- levels of serum il-10 (il-10): higher levels of IL-10 than in controls
- anti-ssDNA antibody levels in the serum (anti-ssDNA antibody): appeared to be leveling out
- lactic acid levels (lactic acid levels): decreased lactic acid levels
- oxygen utilization (lactic acid levels): increased oxygen utilization
- levels of serum il-6 (il-6): significantly lower levels of il-6 than control animals
- CD8^+ T cells (CD8^+ T cells): No effect
- B-cell antibody responses [1]: much higher antibody responses
- activity of T cells and macrophages [1]: enhanced
- effect on humoral and cellular immunity [2]: stimulation of both humoral and cellular immunity
- CD19^+ B cell percentages (CD19^+ B cell): No effect
